Literature values, collected in publication PMC5266543 (ACS infectious diseases, 2016).

Test system: M. tuberculosis H37Rv
Settings: cited from earlier work

SMILES: CC(=O)N(O)CCCP(=O)(O)O [Compound 2, FR900098]
- MIC against Mtb: essentially inactive
